Values quoted from earlier work as cited in US12447051B2, “Multi-functional analgesic-releasing wound dressing” (University of Utah Research Foundation, priority 2020, dated 2025).

Tests used:
[1] = system: Primary human dermal fibroblast cell cultures; details: bupivacaine concentration of the extracts

in vivo degradation | Compound | cytotoxic threshold [1] [% w/w]
greater than 6 months | poly(lactide-co-caprolactone) [PLC] | 
 | CCCCN1CCCCC1C(=O)Nc1c(C)cccc1C (centres unmarked) [bupivacaine] | 0.5
